The record followed here is US10519152B2, “Compounds and their use in treating cancer” (AstraZeneca AB, priority 2017, dated 2019).

Molecules are shown by their SMILES.

The target in experiment [1] is T1, Estrogen Receptor (ERα) in MCF-7 human ductal carcinoma breast cell line (Homo sapiens, UniProt P03372).
T1 construct: endogenous in cells; host or cells: MCF-7
T1 sequence (P03372 1-595): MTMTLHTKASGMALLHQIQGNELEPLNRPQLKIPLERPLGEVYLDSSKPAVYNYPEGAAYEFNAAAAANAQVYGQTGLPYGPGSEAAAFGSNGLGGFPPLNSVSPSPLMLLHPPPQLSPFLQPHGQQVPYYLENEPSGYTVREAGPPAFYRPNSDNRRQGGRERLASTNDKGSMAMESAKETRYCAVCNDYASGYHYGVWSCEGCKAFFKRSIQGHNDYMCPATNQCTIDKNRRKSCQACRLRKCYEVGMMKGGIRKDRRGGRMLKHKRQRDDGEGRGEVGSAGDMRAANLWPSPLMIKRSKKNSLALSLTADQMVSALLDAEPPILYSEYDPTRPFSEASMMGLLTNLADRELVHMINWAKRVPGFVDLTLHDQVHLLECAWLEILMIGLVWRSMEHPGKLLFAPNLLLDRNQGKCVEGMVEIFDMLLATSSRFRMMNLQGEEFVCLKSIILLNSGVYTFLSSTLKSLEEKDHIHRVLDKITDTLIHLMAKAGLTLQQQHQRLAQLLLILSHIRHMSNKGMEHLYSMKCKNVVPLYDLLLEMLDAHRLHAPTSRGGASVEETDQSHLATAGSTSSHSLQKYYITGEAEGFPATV
Kind of experiment: MCF-7 ER degradation assay (cell based immuno-fluorescence). Conditions: MCF-7 cells; for DC50: 18-22 hours incubation, 50% reduction of ERα expression, single experiment or average of two or more, read-out: MCF-7 ER degradation IC50; for ER degradation ≥ 90% at 0.3 μM: ER degradation by fulvestrant at 0.3 μM is defined as 100%. Put shortly:
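MCF-7 human ductal carcinoma breast cells were seeded at 3.75×10^4 cells per mL (40 μL per well) in 384 well plates with phenol red free DMEM containing 2 mM L-Glutamine and 5% (v/v) Charcoal/Dextran treated foetal calf serum. After overnight culture, compounds were acoustically dispensed, incubated 18-22 hours, then cells were formaldehyde-fixed and immunostained for ERα.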

Experiment [2] deals with T2, recombinant human Estrogen Receptor alpha ligand binding domain, residues 307-554 (ER alpha-LBD (GST)) (Homo sapiens, UniProt P03372).
T2 construct: made in house
T2 sequence (P03372 307-554): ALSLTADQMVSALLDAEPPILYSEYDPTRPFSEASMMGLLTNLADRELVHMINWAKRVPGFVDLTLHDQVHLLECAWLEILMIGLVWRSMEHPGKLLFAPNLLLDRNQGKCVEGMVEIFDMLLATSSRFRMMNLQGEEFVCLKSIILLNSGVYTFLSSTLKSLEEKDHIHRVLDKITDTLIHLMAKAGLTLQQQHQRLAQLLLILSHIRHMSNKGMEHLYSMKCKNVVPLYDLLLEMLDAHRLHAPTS
Kind of experiment: ERα binding assay (LanthaScreen TR-FRET competition). Conditions: TR-FRET competition with Fluormone ES2 tracer, 4 hours at room temperature; single experiment or average of two or more. In general terms: Time-resolved FRET reads energy transfer from a long-lived donor to a nearby acceptor.

As for `Cc1ncsc1-c1ccc(CNC(=O)[C@@H]2C[C@@H](O)CN2C(=O)[C@@H](NC(=O)CN2CC3(CCN(CCOc4cc(F)c([C@@H]5c6[nH]c7ccccc7c6C[C@@H](C)N5CC(C)(C)F)c(F)c4)CC3)C2)C(C)(C)C)cc1` [Example 42, (2S,4R)-1-((S)-2-(2-(7-(2-(3,5-difluoro-4-((1R,3R)-2-(2-fluoro-2-methylpropyl)-3-methyl-2,3,4,9-tetrahydro-1H-pyrido[3,4-b]indol-1-yl)phenoxy)ethyl)-2,7-diazaspiro[3.5]nonan-2-yl)acetamido)-3,3-dimethylbutanoyl)-4-hydroxy-N-(4-(4-methylthiazol-5-yl)benzyl)pyrrolidine-2-carboxamide], in experiment [1], the DC50 was found to be 1.9 nM. For the same molecule, the half-maximal inhibitory concentration (IC50) in experiment [2] was 1.3 nM.

As to `Cc1ncsc1-c1ccc(CNC(=O)[C@@H]2C[C@@H](O)CN2C(=O)[C@@H](NC(=O)CCCCN2CCN(CCOc3cc(F)c([C@@H]4c5[nH]c6ccccc6c5C[C@@H](C)N4CC(C)(C)F)c(F)c3)CC2)C(C)(C)C)cc1` [Example 102, (2S,4R)-1-((S)-2-(5-(4-(2-(3,5-difluoro-4-((1R,3R)-2-(2-fluoro-2-methylpropyl)-3-methyl-2,3,4,9-tetrahydro-1H-pyrido[3,4-b]indol-1-yl)phenoxy)ethyl)piperazin-1-yl)pentanamido)-3,3-dimethylbutanoyl)-4-hydroxy-N-(4-(4-methylthiazol-5-yl)benzyl)pyrrolidine-2-carboxamide], the DC50 in experiment [1] turned out to be 0.9 nM. The concentration for half-maximal inhibition (IC50) in experiment [2] worked out at 0.6 nM.

As for `Cc1ncsc1-c1ccc(CNC(=O)[C@@H]2C[C@@H](O)CN2C(=O)[C@@H](NC(=O)COCCOCCOCCOc2cc(F)c([C@@H]3c4[nH]c5ccccc5c4C[C@@H](C)N3CC(C)(C)F)c(F)c2)C(C)(C)C)cc1` [Example 38, (2S,4R)-1-((S)-2-(tert-Butyl)-14-(3,5-difluoro-4-((1R,3R)-2-(2-fluoro-2-methylpropyl)-3-methyl-2,3,4,9-tetrahydro-1H-pyrido[3,4-b]indol-1-yl)phenoxy)-4-oxo-6,9,12-trioxa-3-azatetradecanoyl)-4-hydroxy-N-(4-(4-methylthiazol-5-yl)benzyl)pyrrolidine-2-carboxamide], the “ER degradation ≥ 90% at 0.3 μM” value in experiment [1] is on record as “••”. Further, in experiment [2], the IC50 came to 0.7 nM.

As for `Cc1ncsc1-c1ccc(CNC(=O)[C@@H]2C[C@@H](O)CN2C(=O)[C@@H](NC(=O)COCCCc2cccc(COc3cc(F)c([C@@H]4c5[nH]c6ccccc6c5C[C@@H](C)N4CC(C)(C)F)c(F)c3)c2)C(C)(C)C)cc1` [Example 73, (2S,4R)-1-((S)-2-(2-(3-(3-((3,5-Difluoro-4-((1R,3R)-2-(2-fluoro-2-methylpropyl)-3-methyl-2,3,4,9-tetrahydro-1H-pyrido[3,4-b]indol-1-yl)phenoxy)methyl)phenyl)propoxy)acetamido)-3,3-dimethylbutanoyl)-4-hydroxy-N-(4-(4-methylthiazol-5-yl)benzyl)pyrrolidine-2-carboxamide], the “ER degradation ≥ 90% at 0.3 μM” value in experiment [1] is recorded as “••”. Further, in experiment [2], the IC50 came to 1 nM.

Take `Cc1ncsc1-c1ccc(CNC(=O)[C@@H]2C[C@@H](O)CN2C(=O)[C@@H](NC(=O)COCCCCCN2CC(Oc3cc(F)c([C@@H]4c5[nH]c6ccccc6c5C[C@@H](C)N4CC(C)(C)F)c(F)c3)C2)C(C)(C)C)cc1` [Example 46, (2S,4R)-1-((S)-2-(2-((5-(3-(3,5-difluoro-4-((1R,3R)-2-(2-fluoro-2-methylpropyl)-3-methyl-2,3,4,9-tetrahydro-1H-pyrido[3,4-b]indol-1-yl)phenoxy)azetidin-1-yl)pentyl)oxy)acetamido)-3,3-dimethylbutanoyl)-4-hydroxy-N-(4-(4-methylthiazol-5-yl)benzyl)pyrrolidine-2-carboxamide]: the DC50 in experiment [1] was determined as 2 nM. Besides, the 50% inhibitory concentration (IC50) in experiment [2] worked out at 0.8 nM.

In the case of `Cc1ncsc1-c1ccc(CNC(=O)[C@@H]2C[C@@H](O)CN2C(=O)[C@@H](NC(=O)COCCCOCCCOc2cc(F)c([C@@H]3c4[nH]c5ccccc5c4C[C@@H](C)N3CC(C)(C)F)c(F)c2)C(C)(C)C)cc1` [Example 72, (2S,4R)-1-((S)-2-(2-(3-(3-(3,5-Difluoro-4-((1R,3R)-2-(2-fluoro-2-methylpropyl)-3-methyl-2,3,4,9-tetrahydro-1H-pyrido[3,4-b]indol-1-yl)phenoxy)propoxy)propoxy)acetamido)-3,3-dimethylbutanoyl)-4-hydroxy-N-(4-(4-methylthiazol-5-yl)benzyl)pyrrolidine-2-carboxamide], the “ER degradation ≥ 90% at 0.3 μM” value in experiment [1] is given as “••”. The IC50 in experiment [2] stood at 0.6 nM.

Take `Cc1ncsc1-c1ccc(CNC(=O)[C@@H]2C[C@@H](O)CN2C(=O)[C@@H](NC(=O)CCCN2CCN(CCCOc3cc(F)c([C@@H]4c5[nH]c6ccccc6c5C[C@@H](C)N4CC(C)(C)F)c(F)c3)CC2)C(C)(C)C)cc1` [Example 1, (2S,4R)-1-((S)-2-(4-(4-(3-(3,5-Difluoro-4-((1R,3R)-2-(2-fluoro-2-methylpropyl)-3-methyl-2,3,4,9-tetrahydro-1H-pyrido[3,4-b]indol-1-yl)phenoxy)propyl)piperazin-1-yl)butanamido)-3,3-dimethylbutanoyl)-4-hydroxy-N-(4-(4-methylthiazol-5-yl)benzyl)pyrrolidine-2-carboxamide]: the DC50 in experiment [1] turned out to be 0.7 nM. In experiment [2], the half-inhibitory concentration (IC50) amounted to 0.9 nM.

With `Cc1ncsc1-c1ccc(CNC(=O)[C@@H]2C[C@@H](O)CN2C(=O)[C@@H](NC(=O)COCCOCCOc2cc(F)c([C@@H]3c4[nH]c5ccccc5c4C[C@@H](C)N3CC(C)(C)F)c(F)c2)C(C)(C)C)cc1` [Example 39, (2S,4R)-1-((S)-2-(2-(2-(2-(3,5-difluoro-4-((R,3R)-2-(2-fluoro-2-methylpropyl)-3-methyl-2,3,4,9-tetrahydro-1H-pyrido[3,4-b]indol-1-yl)phenoxy)ethoxy)ethoxy)acetamido)-3,3-dimethylbutanoyl)-4-hydroxy-N-(4-(4-methylthiazol-5-yl)benzyl)pyrrolidine-2-carboxamide], the “ER degradation ≥ 90% at 0.3 μM” value in experiment [1] is “•”. For the same molecule, the half-maximal inhibitory concentration (IC50) in experiment [2] was determined as 0.7 nM.

With `Cc1ncsc1-c1ccc(CNC(=O)[C@@H]2C[C@@H](O)CN2C(=O)[C@@H](NC(=O)CN2CCN(CCCCCOc3cc(F)c([C@@H]4c5[nH]c6ccccc6c5C[C@@H](C)N4CC(C)(C)F)c(F)c3)CC2)C(C)(C)C)cc1` [Example 2, (2S,4R)-1-((S)-2-(2-(4-(5-(3,5-Difluoro-4-((1R,3R)-2-(2-fluoro-2-methylpropyl)-3-methyl-2,3,4,9-tetrahydro-1H-pyrido[3,4-b]indol-1-yl)phenoxy)pentyl)piperazin-1-yl)acetamido)-3,3-dimethylbutanoyl)-4-hydroxy-N-(4-(4-methylthiazol-5-yl)benzyl)pyrrolidine-2-carboxamide], the DC50 in experiment [1] amounted to 2.9 nM. For the same molecule, the IC50 in experiment [2] worked out at 0.6 nM.

For `Cc1ncsc1-c1ccc(CNC(=O)[C@@H]2C[C@@H](O)CN2C(=O)[C@@H](NC(=O)c2ccc(CCCCCOc3cc(F)c([C@@H]4c5[nH]c6ccccc6c5C[C@@H](C)N4CC(C)(C)F)c(F)c3)cc2)C(C)(C)C)cc1` [Example 27, (2S,4R)-1-((S)-2-(4-(5-(3,5-Difluoro-4-((1R,3R)-2-(2-fluoro-2-methylpropyl)-3-methyl-2,3,4,9-tetrahydro-1H-pyrido[3,4-b]indol-1-yl)phenoxy)pentyl)benzamido)-3,3-dimethylbutanoyl)-4-hydroxy-N-(4-(4-methylthiazol-5-yl)benzyl)pyrrolidine-2-carboxamide], the DC50 in experiment [1] was determined as 22 nM. Besides, the IC50 in experiment [2] stood at 1.1 nM.

On to `Cc1ncsc1-c1ccc(CNC(=O)[C@@H]2C[C@@H](O)CN2C(=O)[C@@H](NC(=O)CCOCCCCOc2cc(F)c([C@@H]3c4[nH]c5ccccc5c4C[C@@H](C)N3CC(C)(C)F)c(F)c2)C(C)(C)C)cc1` [Example 92, (2S,4R)-1-((S)-2-(3-(4-(3,5-difluoro-4-((1R,3R)-2-(2-fluoro-2-methylpropyl)-3-methyl-2,3,4,9-tetrahydro-1H-pyrido[3,4-b]indol-1-yl)phenoxy)butoxy)propanamido)-3,3-dimethylbutanoyl)-4-hydroxy-N-(4-(4-methylthiazol-5-yl)benzyl)pyrrolidine-2-carboxamide], for which the DC50 in experiment [1] was 0.4 nM. For the same molecule, the IC50 in experiment [2] was 0.6 nM.

A word on the IC50: it is the concentration that inhibits the measured activity by half.
